The target of assay [1] is 5-hydroxytryptamine receptor 2B (Homo sapiens, UniProt P41595). Type of assay: functional, cell-based.
Assay [2] deals with T1, Alpha-2A adrenergic receptor (Homo sapiens, UniProt P08913).
T1 sequence (P08913 whole entry): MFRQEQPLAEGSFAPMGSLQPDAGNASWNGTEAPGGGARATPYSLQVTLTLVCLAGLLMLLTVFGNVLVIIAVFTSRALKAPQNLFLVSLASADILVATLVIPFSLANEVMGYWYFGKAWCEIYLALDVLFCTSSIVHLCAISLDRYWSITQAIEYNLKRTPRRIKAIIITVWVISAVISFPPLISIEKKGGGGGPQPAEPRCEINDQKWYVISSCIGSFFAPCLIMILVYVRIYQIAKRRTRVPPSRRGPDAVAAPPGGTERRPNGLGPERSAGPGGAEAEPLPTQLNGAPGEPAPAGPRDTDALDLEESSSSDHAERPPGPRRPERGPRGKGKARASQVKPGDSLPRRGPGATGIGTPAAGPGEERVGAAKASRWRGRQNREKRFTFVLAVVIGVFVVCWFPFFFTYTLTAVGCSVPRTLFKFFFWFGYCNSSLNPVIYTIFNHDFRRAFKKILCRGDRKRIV

Assay [3] addresses T2, Muscarinic acetylcholine receptor M2 (Homo sapiens, UniProt P08172).
T2 sequence (P08172 whole entry): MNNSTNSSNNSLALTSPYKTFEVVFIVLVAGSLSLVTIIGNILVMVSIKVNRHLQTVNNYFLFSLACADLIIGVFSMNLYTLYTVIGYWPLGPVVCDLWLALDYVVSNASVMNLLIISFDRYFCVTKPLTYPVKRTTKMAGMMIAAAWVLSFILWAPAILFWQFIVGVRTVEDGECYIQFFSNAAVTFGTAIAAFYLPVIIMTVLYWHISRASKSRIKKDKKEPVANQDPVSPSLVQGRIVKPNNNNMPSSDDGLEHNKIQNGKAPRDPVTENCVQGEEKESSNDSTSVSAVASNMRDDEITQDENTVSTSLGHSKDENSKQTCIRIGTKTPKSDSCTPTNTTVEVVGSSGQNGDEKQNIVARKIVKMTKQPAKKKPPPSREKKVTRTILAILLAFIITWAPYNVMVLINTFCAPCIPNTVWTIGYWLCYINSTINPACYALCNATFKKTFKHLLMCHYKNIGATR

Assay [4] concerns the target T3, Prostaglandin G/H synthase 1 (Homo sapiens, UniProt P23219). The assay is classed as functional.
The target in another assay is Histamine H3 receptor (Homo sapiens, UniProt Q9Y5N1).
Sequence of Histamine H3 receptor (Q9Y5N1 whole entry): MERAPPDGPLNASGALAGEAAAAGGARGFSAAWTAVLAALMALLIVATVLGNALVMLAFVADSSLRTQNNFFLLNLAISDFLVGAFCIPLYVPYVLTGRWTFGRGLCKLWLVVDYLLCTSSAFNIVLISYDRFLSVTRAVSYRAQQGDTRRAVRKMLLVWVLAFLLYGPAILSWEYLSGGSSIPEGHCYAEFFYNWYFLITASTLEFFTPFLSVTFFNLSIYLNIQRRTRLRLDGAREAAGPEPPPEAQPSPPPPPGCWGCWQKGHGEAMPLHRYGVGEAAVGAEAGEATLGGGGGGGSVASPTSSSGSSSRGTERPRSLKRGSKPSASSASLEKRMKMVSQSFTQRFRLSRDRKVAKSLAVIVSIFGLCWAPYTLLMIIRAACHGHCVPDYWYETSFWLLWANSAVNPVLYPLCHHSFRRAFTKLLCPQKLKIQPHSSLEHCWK
The next assay concerns the target Acetylcholinesterase (Homo sapiens, UniProt P22303). Type of assay: functional.
The target of assay [5] is T4, Amine oxidase [flavin-containing] A (Homo sapiens, UniProt P21397).
T4 sequence (P21397 whole entry): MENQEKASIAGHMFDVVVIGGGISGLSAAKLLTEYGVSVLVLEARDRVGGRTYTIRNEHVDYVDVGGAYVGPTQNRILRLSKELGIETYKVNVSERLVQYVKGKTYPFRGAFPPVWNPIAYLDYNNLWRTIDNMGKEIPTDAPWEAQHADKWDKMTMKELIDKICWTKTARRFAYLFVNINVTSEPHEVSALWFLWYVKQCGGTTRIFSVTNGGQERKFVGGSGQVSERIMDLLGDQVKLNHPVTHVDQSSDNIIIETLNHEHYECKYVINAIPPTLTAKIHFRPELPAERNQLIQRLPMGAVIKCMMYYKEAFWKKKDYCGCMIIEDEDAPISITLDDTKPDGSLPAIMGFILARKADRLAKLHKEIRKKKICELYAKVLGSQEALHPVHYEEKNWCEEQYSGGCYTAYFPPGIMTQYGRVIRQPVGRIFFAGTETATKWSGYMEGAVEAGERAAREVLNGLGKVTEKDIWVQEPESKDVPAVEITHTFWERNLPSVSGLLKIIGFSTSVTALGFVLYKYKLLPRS
The assay is classed as functional.

A further assay addresses Prothrombin (Homo sapiens, UniProt P00734). Type of assay: functional.
In assay [6] the target is Voltage-gated inwardly rectifying potassium channel KCNH2 (Homo sapiens, UniProt Q12809). Type of assay: functional. The conditions noted are these: read-out: AC50.
Sequence of Voltage-gated inwardly rectifying potassium channel KCNH2 (Q12809 whole entry): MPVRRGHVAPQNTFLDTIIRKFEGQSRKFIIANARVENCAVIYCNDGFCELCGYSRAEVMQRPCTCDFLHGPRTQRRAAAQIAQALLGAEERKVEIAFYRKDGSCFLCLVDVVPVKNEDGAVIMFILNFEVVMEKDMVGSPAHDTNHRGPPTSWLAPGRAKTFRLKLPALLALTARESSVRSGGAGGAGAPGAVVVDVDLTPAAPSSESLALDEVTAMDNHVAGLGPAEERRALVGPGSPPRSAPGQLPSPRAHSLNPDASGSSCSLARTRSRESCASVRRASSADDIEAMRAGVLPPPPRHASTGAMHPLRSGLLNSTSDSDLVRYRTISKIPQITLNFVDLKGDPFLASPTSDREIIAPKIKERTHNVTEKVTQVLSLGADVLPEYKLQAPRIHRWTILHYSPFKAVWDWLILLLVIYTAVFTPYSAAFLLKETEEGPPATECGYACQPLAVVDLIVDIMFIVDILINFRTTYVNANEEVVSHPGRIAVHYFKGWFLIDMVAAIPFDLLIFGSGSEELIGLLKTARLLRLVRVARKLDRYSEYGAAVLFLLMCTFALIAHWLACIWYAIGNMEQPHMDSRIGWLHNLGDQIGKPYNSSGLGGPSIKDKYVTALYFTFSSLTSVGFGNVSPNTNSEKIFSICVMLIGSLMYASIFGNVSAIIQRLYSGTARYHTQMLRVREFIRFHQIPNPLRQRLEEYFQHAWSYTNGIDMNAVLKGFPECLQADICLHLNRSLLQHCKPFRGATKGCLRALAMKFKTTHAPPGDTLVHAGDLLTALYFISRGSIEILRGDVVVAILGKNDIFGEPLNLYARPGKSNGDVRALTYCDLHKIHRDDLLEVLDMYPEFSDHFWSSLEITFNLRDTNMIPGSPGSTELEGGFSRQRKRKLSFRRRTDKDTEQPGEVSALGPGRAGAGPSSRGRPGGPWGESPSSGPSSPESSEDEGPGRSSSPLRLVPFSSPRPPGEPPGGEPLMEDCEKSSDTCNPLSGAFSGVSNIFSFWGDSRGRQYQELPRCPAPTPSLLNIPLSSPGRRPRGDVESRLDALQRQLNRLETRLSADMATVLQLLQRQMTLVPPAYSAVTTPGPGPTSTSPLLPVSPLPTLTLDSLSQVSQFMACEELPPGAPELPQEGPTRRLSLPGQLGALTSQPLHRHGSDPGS
For assay [7], the target named is cGMP-inhibited 3',5'-cyclic phosphodiesterase 3A (Homo sapiens, UniProt Q14432). The assay is classed as functional.
Sequence of cGMP-inhibited 3',5'-cyclic phosphodiesterase 3A (Q14432 whole entry): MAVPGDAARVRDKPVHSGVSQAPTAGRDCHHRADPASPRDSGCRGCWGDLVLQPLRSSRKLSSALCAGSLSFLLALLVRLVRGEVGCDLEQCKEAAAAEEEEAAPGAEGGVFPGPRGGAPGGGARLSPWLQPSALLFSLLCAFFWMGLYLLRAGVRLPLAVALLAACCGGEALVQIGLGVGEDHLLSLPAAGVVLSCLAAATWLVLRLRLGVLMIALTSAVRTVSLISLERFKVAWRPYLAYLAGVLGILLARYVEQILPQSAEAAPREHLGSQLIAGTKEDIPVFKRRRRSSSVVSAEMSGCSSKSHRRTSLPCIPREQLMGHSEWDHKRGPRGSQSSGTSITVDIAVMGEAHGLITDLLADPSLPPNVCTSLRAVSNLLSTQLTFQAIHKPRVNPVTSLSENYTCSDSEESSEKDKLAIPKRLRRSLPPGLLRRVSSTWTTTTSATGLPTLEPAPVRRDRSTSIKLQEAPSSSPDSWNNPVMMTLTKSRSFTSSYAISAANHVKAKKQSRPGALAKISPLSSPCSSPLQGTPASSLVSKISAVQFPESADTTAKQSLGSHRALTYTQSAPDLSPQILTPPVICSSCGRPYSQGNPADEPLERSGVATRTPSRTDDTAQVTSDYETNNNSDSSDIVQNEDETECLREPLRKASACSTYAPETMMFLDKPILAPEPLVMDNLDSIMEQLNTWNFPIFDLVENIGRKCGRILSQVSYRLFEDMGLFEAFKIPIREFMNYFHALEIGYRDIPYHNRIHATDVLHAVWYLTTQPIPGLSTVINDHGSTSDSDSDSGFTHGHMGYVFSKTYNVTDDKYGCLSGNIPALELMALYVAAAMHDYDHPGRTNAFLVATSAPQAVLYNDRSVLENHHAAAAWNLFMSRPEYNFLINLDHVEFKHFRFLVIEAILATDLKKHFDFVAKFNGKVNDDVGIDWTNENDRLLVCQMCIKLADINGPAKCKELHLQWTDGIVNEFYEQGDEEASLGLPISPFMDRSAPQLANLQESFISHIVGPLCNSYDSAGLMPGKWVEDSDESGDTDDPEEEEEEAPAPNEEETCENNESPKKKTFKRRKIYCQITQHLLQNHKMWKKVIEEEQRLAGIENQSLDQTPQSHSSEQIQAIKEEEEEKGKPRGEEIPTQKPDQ
The target of the next assay is T5, Thromboxane A2 receptor (Homo sapiens, UniProt P21731).
T5 sequence (P21731 whole entry): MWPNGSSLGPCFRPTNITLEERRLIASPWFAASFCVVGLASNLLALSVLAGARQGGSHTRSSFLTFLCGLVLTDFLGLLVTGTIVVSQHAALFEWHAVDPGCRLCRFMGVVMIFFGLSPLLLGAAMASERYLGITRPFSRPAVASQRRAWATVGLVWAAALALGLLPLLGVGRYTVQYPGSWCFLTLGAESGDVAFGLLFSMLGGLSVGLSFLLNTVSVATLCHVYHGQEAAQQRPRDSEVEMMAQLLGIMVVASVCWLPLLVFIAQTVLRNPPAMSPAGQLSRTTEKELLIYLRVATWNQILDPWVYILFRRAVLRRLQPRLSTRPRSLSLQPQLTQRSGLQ
The assay is classed as functional, cell-based.

In another assay the target is Mu-type opioid receptor (Homo sapiens, UniProt P35372).
Sequence of Mu-type opioid receptor (P35372 whole entry): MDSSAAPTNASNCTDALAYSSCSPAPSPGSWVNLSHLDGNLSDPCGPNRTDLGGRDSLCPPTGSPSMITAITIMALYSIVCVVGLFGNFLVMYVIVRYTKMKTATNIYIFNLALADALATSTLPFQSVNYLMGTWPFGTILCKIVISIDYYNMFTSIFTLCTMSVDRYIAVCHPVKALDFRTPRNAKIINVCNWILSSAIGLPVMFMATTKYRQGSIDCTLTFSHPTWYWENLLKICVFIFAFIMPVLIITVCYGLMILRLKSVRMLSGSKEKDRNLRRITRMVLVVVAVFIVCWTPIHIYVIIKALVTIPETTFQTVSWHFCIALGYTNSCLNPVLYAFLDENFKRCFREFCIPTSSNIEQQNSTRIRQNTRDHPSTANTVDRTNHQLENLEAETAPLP
Assay [8] concerns the target T3, Prostaglandin G/H synthase 1. Type of assay: functional. The source holds these as a separate data set.

Bounds are passed on as bounds.
Note: assay procedure not described here.

Sequence of 5-hydroxytryptamine receptor 2B (P41595 whole entry): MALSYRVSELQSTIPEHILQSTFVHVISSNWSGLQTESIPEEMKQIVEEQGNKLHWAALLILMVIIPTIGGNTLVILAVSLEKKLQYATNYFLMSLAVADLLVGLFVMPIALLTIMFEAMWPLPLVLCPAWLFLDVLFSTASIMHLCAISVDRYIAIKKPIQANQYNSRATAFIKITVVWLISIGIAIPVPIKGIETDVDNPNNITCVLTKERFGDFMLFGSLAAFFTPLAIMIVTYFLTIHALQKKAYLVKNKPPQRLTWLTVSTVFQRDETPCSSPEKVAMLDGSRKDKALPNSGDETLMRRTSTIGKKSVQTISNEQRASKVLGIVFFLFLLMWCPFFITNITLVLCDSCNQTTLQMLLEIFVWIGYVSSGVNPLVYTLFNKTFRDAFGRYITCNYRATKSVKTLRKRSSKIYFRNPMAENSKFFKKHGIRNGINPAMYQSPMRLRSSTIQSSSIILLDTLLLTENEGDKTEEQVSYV
T3 sequence (P23219 whole entry): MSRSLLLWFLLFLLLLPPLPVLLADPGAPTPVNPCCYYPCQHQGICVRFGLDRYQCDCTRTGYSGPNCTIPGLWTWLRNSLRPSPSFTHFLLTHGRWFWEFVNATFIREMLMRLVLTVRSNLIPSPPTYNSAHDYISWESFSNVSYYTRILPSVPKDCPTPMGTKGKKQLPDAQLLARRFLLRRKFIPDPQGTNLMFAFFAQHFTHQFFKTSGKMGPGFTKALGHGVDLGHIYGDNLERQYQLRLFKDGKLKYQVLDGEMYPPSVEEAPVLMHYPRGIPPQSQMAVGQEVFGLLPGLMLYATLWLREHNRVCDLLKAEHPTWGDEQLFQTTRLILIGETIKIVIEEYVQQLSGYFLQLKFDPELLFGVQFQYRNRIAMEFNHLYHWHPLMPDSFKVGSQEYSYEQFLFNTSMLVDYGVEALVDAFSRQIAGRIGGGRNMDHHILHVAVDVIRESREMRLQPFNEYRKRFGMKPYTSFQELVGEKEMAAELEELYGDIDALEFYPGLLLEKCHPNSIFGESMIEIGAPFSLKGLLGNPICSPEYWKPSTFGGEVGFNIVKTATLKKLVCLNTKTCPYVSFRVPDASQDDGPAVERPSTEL
Sequence of Acetylcholinesterase (P22303 whole entry): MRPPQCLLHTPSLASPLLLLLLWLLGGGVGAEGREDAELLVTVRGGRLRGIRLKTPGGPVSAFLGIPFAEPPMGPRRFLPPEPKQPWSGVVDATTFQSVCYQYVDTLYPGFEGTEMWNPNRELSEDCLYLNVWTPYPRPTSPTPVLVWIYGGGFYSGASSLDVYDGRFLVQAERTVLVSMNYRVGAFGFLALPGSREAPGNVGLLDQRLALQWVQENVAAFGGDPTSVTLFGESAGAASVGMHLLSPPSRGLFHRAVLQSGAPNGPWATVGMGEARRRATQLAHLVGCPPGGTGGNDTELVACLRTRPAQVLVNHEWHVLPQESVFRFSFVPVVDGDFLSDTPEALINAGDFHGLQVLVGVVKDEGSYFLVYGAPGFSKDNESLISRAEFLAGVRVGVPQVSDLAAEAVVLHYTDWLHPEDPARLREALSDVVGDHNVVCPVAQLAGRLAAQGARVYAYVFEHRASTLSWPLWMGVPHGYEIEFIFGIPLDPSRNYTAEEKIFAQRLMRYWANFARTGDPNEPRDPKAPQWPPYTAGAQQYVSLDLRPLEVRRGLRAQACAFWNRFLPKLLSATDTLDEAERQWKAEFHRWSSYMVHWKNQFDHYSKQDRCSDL

As to `CCC(CC)(CC(=O)Nc1cccc(/C=C/c2nc(C3CCC3)cs2)c1)C(=O)O`, the AC50 (in assay [1]; in [2]; in assay [3]; in [4]; on Histamine H3 receptor; on Acetylcholinesterase) was greater than 30 µM each time. Besides, the AC50 in assay [5] was greater than 30 µM; at Prothrombin it was greater than 30 µM; in assay [6] it was greater than 30 µM; in assay [7], greater than 30 µM; at Thromboxane A2 receptor it was greater than 10 µM; on Mu-type opioid receptor, greater than 30 µM. Besides, the half-maximal activity concentration (AC50) in assay [8] was found to be 26.2 µM.

`CN1CCN(C2=Nc3ccccc3Sc3ccc(Cl)cc32)CC1` [CLOTHIAPINE]: the AC50 in [1] is greater than 30 µM; in [2], 3.47 µM; in [3], 0.52 µM; in assay [4], greater than 30 µM; on Histamine H3 receptor, greater than 30 µM; at Acetylcholinesterase, greater than 30 µM. Also, the AC50 in assay [5] is greater than 30 µM; on Prothrombin it was greater than 30 µM; in assay [6] it was 4.1 µM; in [7], greater than 30 µM; at Thromboxane A2 receptor, greater than 10 µM; at Mu-type opioid receptor, 1.1 µM. This molecule also yielded an AC50 in [8] greater than 30 µM.

As to `CN(C)CC/C=C1\c2ccccc2CSc2ccccc21` [DOTHIEPIN], the AC50 in assay [6] was 1.5 µM.

On to `CC[C@H]1CN2CCc3cc(OC)c(OC)cc3[C@@H]2C[C@@H]1C[C@H]1NCCc2cc(OC)c(OC)cc21` [EMETINE], for which the AC50 is greater than 30 µM in assay [1]; 0.09 µM in assay [2]; greater than 30 µM in assay [3]; greater than 30 µM in [4]; greater than 30 µM at Histamine H3 receptor; greater than 30 µM on Acetylcholinesterase. Moreover, the AC50 in assay [5] is greater than 30 µM; at Prothrombin, greater than 30 µM; in [7], greater than 30 µM; at Thromboxane A2 receptor, greater than 30 µM; at Mu-type opioid receptor it was 5.99 µM; in assay [8] it was greater than 30 µM.

`O=[N+]([O-])O[C@@H]1CO[C@H]2[C@@H]1OC[C@@H]2O` [ISOSORBIDE MONONITRATE]: the AC50 (in [1]; in assay [2]; in [3]; in assay [4]; at Histamine H3 receptor; on Acetylcholinesterase) was greater than 30 µM in each case. Further, the AC50 (in assay [5]; at Prothrombin; in assay [6]; in [7]; at Thromboxane A2 receptor; on Mu-type opioid receptor) was greater than 30 µM each time. Moreover, the AC50 in assay [8] was greater than 30 µM.

Take `Cc1cc(C)c(NC(=O)CN(CC(=O)O)CC(=O)O)c(C)c1Br` [MEBROFENIN]: the AC50 (in assay [1]; in assay [2]; in assay [3]; in assay [4]; on Histamine H3 receptor; at Acetylcholinesterase) was greater than 30 µM throughout. The concentration at half-maximal activity (AC50) (in assay [5]; at Prothrombin; in [6]; in assay [7]; at Thromboxane A2 receptor; at Mu-type opioid receptor) was greater than 30 µM each time. This molecule displayed a half-maximal activity concentration (AC50) in assay [8] greater than 30 µM.

For the molecule `COc1ccccc1N1CCN(CC(O)COc2cccc3ccccc23)CC1` (configuration not stated) [NAFTOPIDIL], the AC50 in assay [1] is greater than 30 µM; in [2] it was 0.29 µM; in [3], greater than 30 µM; in assay [4], greater than 30 µM; on Histamine H3 receptor, greater than 30 µM; on Acetylcholinesterase, 26.1 µM. Moreover, the half-maximal activity concentration (AC50) was greater than 30 µM in assay [5]; greater than 30 µM at Prothrombin; 0.87 µM in assay [6]; greater than 30 µM in [7]; greater than 30 µM at Thromboxane A2 receptor; 0.9 µM on Mu-type opioid receptor. Also, the AC50 in assay [8] was greater than 30 µM.

Take `COc1cc2nc(N3CCN(C(=O)c4ccco4)CC3)nc(N)c2cc1OC` [PRAZOSIN]: the AC50 in [1] was greater than 30 µM; in assay [3], 13.3 µM; in assay [4], greater than 30 µM; at Histamine H3 receptor, greater than 30 µM; on Acetylcholinesterase it was 23.7 µM; in assay [5], greater than 30 µM. The concentration at half-maximal activity (AC50) was greater than 10 µM at Prothrombin; 3.73 µM in assay [6]; greater than 30 µM in assay [7]; greater than 30 µM at Thromboxane A2 receptor; 17.5 µM at Mu-type opioid receptor; greater than 30 µM in assay [8].

Turning to `Cc1oc(=O)oc1CN1CCN(c2cc3c(cc2F)c(=O)c(C(=O)O)c2n3C(C)S2)CC1` (configuration not stated) [PRULIFLOXACIN], the AC50 (in [1]; in assay [2]; in [3]; in [4]; at Histamine H3 receptor; on Acetylcholinesterase) was greater than 30 µM throughout. For the same molecule, the AC50 (in assay [5]; at Prothrombin; in assay [6]; in assay [7]; at Thromboxane A2 receptor; on Mu-type opioid receptor) was greater than 30 µM throughout. Also, the AC50 in assay [8] is greater than 30 µM.

As to `CCCCCNC(=N)N/N=C/c1c[nH]c2ccc(OC)cc12` [TEGASEROD], the AC50 in [1] was greater than 30 µM; in assay [2], 0.92 µM; in assay [3], 6.59 µM; in [4] it was 2.65 µM; at Histamine H3 receptor, greater than 30 µM; at Acetylcholinesterase, greater than 30 µM. The half-maximal activity concentration (AC50) in assay [5] is 23.6 µM; at Prothrombin, greater than 30 µM; in assay [6], 4.8 µM; in [7], greater than 30 µM; on Thromboxane A2 receptor, greater than 3 µM; at Mu-type opioid receptor, 2.32 µM. In assay [8], this molecule gave a half-maximal activity concentration (AC50) of 20.4 µM.

In the case of `CCCCS(=O)(=O)N[C@@H](Cc1ccc(OCCCCC2CCNCC2)cc1)C(=O)O` [TIROFIBAN], the half-maximal activity concentration (AC50) is greater than 30 µM in assay [1]; greater than 30 µM in assay [2]; 20.4 µM in assay [3]; greater than 30 µM in assay [4]; greater than 30 µM at Histamine H3 receptor; greater than 30 µM on Acetylcholinesterase. Also, the half-maximal activity concentration (AC50) (in [5]; at Prothrombin; in assay [6]; in assay [7]; at Thromboxane A2 receptor; on Mu-type opioid receptor) was greater than 30 µM each time. The same molecule showed a concentration at half-maximal activity (AC50) in assay [8] greater than 30 µM.

For `C=CCCCCCCCCC(=O)O` [UNDECYLENIC ACID], the AC50 (in assay [1]; in assay [2]; in assay [3]; in [4]; on Histamine H3 receptor; at Acetylcholinesterase) was greater than 30 µM in each case. The half-maximal activity concentration (AC50) (in assay [5]; on Prothrombin; in assay [7]; at Thromboxane A2 receptor; on Mu-type opioid receptor; in assay [8]) was greater than 30 µM throughout.

In the case of `CN(C)CCc1c[nH]c2ccc(C[C@H]3COC(=O)N3)cc12` [ZOLMITRIPTAN], the AC50 in assay [6] is greater than 30 µM.
